Consider three compounds from patent US20100286101A1, “PHARMACEUTICAL COMPOSITION INCLUDING A CORTICOSTEROID AND A VITAMIN D ANALOG HAVING IMPROVED STABILITY” (priority 2009, published 2010).

A short description of the series: Solvent attributes (dipolar, H-bonding, miscibility in mineral oil). It is filed as physicochemical.

As to `CC(O)CO` (stereo not drawn) [Propylene Glycol], the Dipolar result was “Yes”, the H-bonding entry is “Yes” and the “Miscibility in oil (mineral oil)” value is “No”.

For the compound Polysorbate 80, the Dipolar entry was “Yes”, the H-bonding result is “Yes” and the “Miscibility in oil (mineral oil)” value is recorded as “No”.

As to Sorbitan Sesquioleate, the Dipolar result was “Yes”, the H-bonding result is on record as “Yes” and the “Miscibility in oil (mineral oil)” value is on record as “Yes”.
